Laboratory results as given in patent US5292734A, “Angiotensin II receptor blocking 2,3,6 substituted quinazolinones” (American Cyanamid Company, priority 1993, dated 1994).
Where “and” joins values, the source holds several entries; their conditions need not be identical. Equal entries are not always repeated.

Tested on: Angiotensin II (AII) vasopressor response
Assay: AII challenge: vasopressor response of angiotensin II in conscious SHR
Assay type: in vivo, rat (Conscious Male Okamoto-Aoki SHR)
Conditions: for % Inhibition / Average Change: SHR n = 2; for Response After AII / Change / Control Before AII: single rat, SHR
Description: By administering a compound of this invention to a rat, and then challenging with angiotensin II, a blockage of the vasopressor response is realized.
Conscious Male Okamoto-Aoki SHR, 16-20 weeks old, weighing approximately 330 g are purchased from Charles River Labs (Wilmington, Mass.). Conscious rats are restrained in a supine position with elastic tape. The area at the base of the tail is locally anesthetized by subcutaneous infiltration with 2% procaine. The ventral caudal artery and vein are isolated, and a cannula made of polyethylene (PE) 10-20 tubing (fused together by heat) is passed into the lower abdominal aorta and vena cava, respectively. The cannula is secured, heparinized (1,000 I.U./ml), sealed and the wound is closed. The animals are placed in plastic restraining cages in an upright position. The cannula is attached to a Statham P23Db pressure transducer, and pulsatile blood pressure is recorded to 10-15 minutes with a Gould Brush recorder. (Chan et al., (Drug Development Res., 18:75-94, 1989).
Angiotensin II (human sequence, Sigma Chem. Co., St. Louis, Mo.) of 0.05 and 0.1 ug/kg i.v. is injected into all rats (predosing response). Then a test compound, vehicle or a known angiotensin II antagonist is administered i.v., i.p. or orally to each set of rats. The two doses of angiotensin II are given to each rat again at 30, 60, 90, 120, 180, 240 and 300 minutes post dosing the compound or vehicle. The vasopressor response of angiotensin II is measured for the increase in systolic blood pressure in mmhg. The percentage of antagonism or blockade of the vasopressor response of angiotensin II by a compound is calculated using the vasopressor response (increase in systolic blood pressure) of angiotensin II of each rat predosing the compound as 100%. A compound is considered active if at 30 mg/kg i.v. it antagonized at least 50% of the response.

[1] = 1 mg/kg I.V., AII 0.05 mcg/kg IV, 30 min post dose
[2] = 1 mg/kg I.V., AII 0.05 mcg/kg IV, 60 min post dose
[3] = 1 mg/kg I.V., AII 0.05 mcg/kg IV, 90 min post dose
[4] = 1 mg/kg I.V., AII 0.05 mcg/kg IV, 120 min post dose
[5] = 1 mg/kg I.V., AII 0.05 mcg/kg IV, 180 min post dose
[6] = 1 mg/kg I.V., AII 0.05 mcg/kg IV, 240 min post dose
[7] = 1 mg/kg I.V., AII 0.1 mcg/kg IV, 30 min post dose
[8] = 1 mg/kg I.V., AII 0.1 mcg/kg IV, 60 min post dose
[9] = 1 mg/kg I.V., AII 0.1 mcg/kg IV, 90 min post dose
[10] = 1 mg/kg I.V., AII 0.1 mcg/kg IV, 120 min post dose
[11] = 1 mg/kg I.V., AII 0.1 mcg/kg IV, 180 min post dose
[12] = 1 mg/kg I.V., AII 0.1 mcg/kg IV, 240 min post dose
[13] = 2 mg/kg P.O., AII 0.05 mcg/kg IV, 30 min post dose
[14] = 2 mg/kg P.O., AII 0.05 mcg/kg IV, 60 min post dose
[15] = 2 mg/kg P.O., AII 0.05 mcg/kg IV, 90 min post dose
[16] = 2 mg/kg P.O., AII 0.05 mcg/kg IV, 120 min post dose
[17] = 2 mg/kg P.O., AII 0.05 mcg/kg IV, 180 min post dose
[18] = 2 mg/kg P.O., AII 0.1 mcg/kg IV, 30 min post dose
[19] = 2 mg/kg P.O., AII 0.1 mcg/kg IV, 60 min post dose
[20] = 2 mg/kg P.O., AII 0.1 mcg/kg IV, 90 min post dose
[21] = 2 mg/kg P.O., AII 0.1 mcg/kg IV, 120 min post dose
[22] = 2 mg/kg P.O., AII 0.1 mcg/kg IV, 180 min post dose
[23] = 1 mg/kg I.V., AII 0.05 mcg/kg IV, 30 min post dose, 1 mg/kg
[24] = 1 mg/kg I.V., AII 0.05 mcg/kg IV, 60 min post dose, 1 mg/kg
[25] = 1 mg/kg I.V., AII 0.05 mcg/kg IV, 90 min post dose, 1 mg/kg
[26] = 1 mg/kg I.V., AII 0.05 mcg/kg IV, 180 min post dose, 1 mg/kg
[27] = 1 mg/kg I.V., AII 0.05 mcg/kg IV, 240 min post dose, 1 mg/kg
[28] = 1 mg/kg I.V., AII 0.1 mcg/kg IV, 30 min post dose, 1 mg/kg
[29] = 1 mg/kg I.V., AII 0.1 mcg/kg IV, 60 min post dose, 1 mg/kg
[30] = 1 mg/kg I.V., AII 0.1 mcg/kg IV, 90 min post dose, 1 mg/kg
[31] = 1 mg/kg I.V., AII 0.1 mcg/kg IV, 120 min post dose, 1 mg/kg
[32] = 1 mg/kg I.V., AII 0.1 mcg/kg IV, 180 min post dose, 1 mg/kg
[33] = 1 mg/kg I.V., AII 0.1 mcg/kg IV, 240 min post dose, 1 mg/kg
[34] = 2 mg/kg P.O., AII 0.05 mcg/kg IV, 30 min post dose, 2 mg/kg
[35] = 2 mg/kg P.O., AII 0.05 mcg/kg IV, 90 min post dose, 2 mg/kg
[36] = 2 mg/kg P.O., AII 0.05 mcg/kg IV, 120 min post dose, 2 mg/kg
[37] = 2 mg/kg P.O., AII 0.05 mcg/kg IV, 180 min post dose, 2 mg/kg
[38] = 2 mg/kg P.O., AII 0.1 mcg/kg IV, 60 min post dose, 2 mg/kg
[39] = 2 mg/kg P.O., AII 0.1 mcg/kg IV, 120 min post dose, 2 mg/kg
[40] = 2 mg/kg P.O., AII 0.1 mcg/kg IV, 180 min post dose, 2 mg/kg

CCCCc1nc2ccc(C(C)(O)CC3CCCN3)cc2c(=O)n1Cc1ccc(-c2ccccc2-c2nnn[nH]2)cc1 (stereo not drawn) [Example 79, CIS-2-Butyl-6-[1-hydroxy-1-methyl-2-(2-pyrrolidinyl)ethyl]-3-[[21-(1H-tetrazol-5-yl)[1,1'-biphenyl]-4-yl]methyl]-4(3H)-quinazolinone]
% Inhibition [1]: 93% | Average Change [1]: 2.5 mmhg | % Inhibition [2]: 67% | Average Change [2]: 12.5 mmhg | % Inhibition [3]: 53% | Average Change [3]: 17.5 mmhg | % Inhibition [4]: 47% | Average Change [4]: 20 mmhg | % Inhibition [5]: 53% | Average Change [5]: 17.5 mmhg | % Inhibition [6]: 20% | Average Change [6]: 30 mmhg | % Inhibition [7]: 76% | Average Change [7]: 11 mmhg | % Inhibition [8]: 62% | Average Change [8]: 17 mmhg | % Inhibition [9]: 56% | Average Change [9]: 20 mmhg | % Inhibition [10]: 39% | Average Change [10]: 27.5 mmhg | % Inhibition [11]: 50% | Average Change [11]: 22.5 mmhg | % Inhibition [12]: 24% | Average Change [12]: 34 mmhg | % Inhibition [13]: 0% | Average Change [13]: 27.5 mmhg | % Inhibition [14]: -9% | Average Change [14]: 30 mmhg | % Inhibition [15]: 13% | Average Change [15]: 24 mmhg | % Inhibition [16]: 15% | Average Change [16]: 23.5 mmhg | % Inhibition [17]: 5% | Average Change [17]: 26 mmhg | % Inhibition [18]: -9% | Average Change [18]: 30 mmhg | % Inhibition [19]: -36% | Average Change [19]: 37.5 mmhg | % Inhibition [20]: -55% | Average Change [20]: 42.5 mmhg | % Inhibition [21]: -11% | Average Change [21]: 30.5 mmhg | % Inhibition [22]: -40% | Average Change [22]: 38.5 mmhg | Response After AII [1]: 200 mmhg | Change [23]: 0 mmhg and 5 mmhg | Response After AII [23]: 205 mmhg | Response After AII [2]: 220 mmhg | Change [24]: 15 mmhg and 10 mmhg | Response After AII [24]: 205 mmhg | Response After AII [3]: 220 mmhg | Change [25]: 15 mmhg and 20 mmhg | Response After AII [25]: 215 mmhg | Change [4]: 20 mmhg | Response After AII [4]: 215 mmhg | Response After AII [5]: 220 mmhg | Change [26]: 15 mmhg and 20 mmhg | Response After AII [26]: 215 mmhg | Change [27]: 25 mmhg and 35 mmhg | Response After AII [27]: 220 mmhg and 235 mmhg | Response After AII [7]: 202 mmhg | Change [28]: 15 mmhg and 7 mmhg | Response After AII [28]: 205 mmhg | Change [29]: 19 mmhg and 15 mmhg | Response After AII [29]: 214 mmhg and 210 mmhg | Response After AII [9]: 220 mmhg | Change [30]: 25 mmhg and 15 mmhg | Response After AII [30]: 215 mmhg | Change [31]: 30 mmhg and 25 mmhg | Response After AII [31]: 230 mmhg and 220 mmhg | Response After AII [11]: 220 mmhg | Change [32]: 30 mmhg and 15 mmhg | Response After AII [32]: 225 mmhg | Change [33]: 33 mmhg and 35 mmhg | Response After AII [33]: 238 mmhg and 240 mmhg | Control Before AII (1 mg/kg I.V., before AII 0.05 mcg/kg IV, 30 min post dose): 200 mmhg | Control Before AII (1 mg/kg I.V., before AII 0.05 mcg/kg IV, 60 min post dose, 1 mg/kg): 205 mmhg and 195 mmhg | Control Before AII (1 mg/kg I.V., before AII 0.05 mcg/kg IV, 90 min post dose): 200 mmhg | Control Before AII (1 mg/kg I.V., before AII 0.05 mcg/kg IV, 120 min post dose): 195 mmhg | Control Before AII (1 mg/kg I.V., before AII 0.05 mcg/kg IV, 180 min post dose, 1 mg/kg): 205 mmhg and 195 mmhg | Control Before AII (1 mg/kg I.V., before AII 0.05 mcg/kg IV, 240 min post dose, 1 mg/kg): 195 mmhg and 200 mmhg | Control Before AII (1 mg/kg I.V., before AII 0.1 mcg/kg IV, 30 min post dose, 1 mg/kg): 190 mmhg and 195 mmhg | Control Before AII (1 mg/kg I.V., before AII 0.1 mcg/kg IV, 60 min post dose): 195 mmhg | Control Before AII (1 mg/kg I.V., before AII 0.1 mcg/kg IV, 90 min post dose, 1 mg/kg): 195 mmhg and 200 mmhg | Control Before AII (1 mg/kg I.V., before AII 0.1 mcg/kg IV, 120 min post dose, 1 mg/kg): 200 mmhg and 195 mmhg | Control Before AII (1 mg/kg I.V., before AII 0.1 mcg/kg IV, 180 min post dose, 1 mg/kg): 195 mmhg and 205 mmhg | Control Before AII (1 mg/kg I.V., before AII 0.1 mcg/kg IV, 240 min post dose): 205 mmhg | Change [34]: 30 mmhg and 25 mmhg | Response After AII [34]: 260 mmhg and 275 mmhg | Change [14]: 30 mmhg | Response After AII (2 mg/kg P.O., AII 0.05 mcg/kg IV, 60 min post dose, 2 mg/kg): 265 mmhg and 270 mmhg | Change [35]: 20 mmhg and 28 mmhg | Response After AII [35]: 245 mmhg and 258 mmhg | Change [36]: 17 mmhg and 30 mmhg | Response After AII [36]: 242 mmhg and 265 mmhg | Change [37]: 17 mmhg and 35 mmhg | Response After AII [37]: 252 mmhg and 275 mmhg | Change [18]: 30 mmhg | Response After AII (2 mg/kg P.O., AII 0.1 mcg/kg IV, 30 min post dose, 2 mg/kg): 265 mmhg and 275 mmhg | Change [38]: 35 mmhg and 40 mmhg | Response After AII [38]: 260 mmhg and 280 mmhg | Response After AII [20]: 270 mmhg | Change (2 mg/kg P.O., AII 0.1 mcg/kg IV, 90 min post dose, 2 mg/kg): 45 mmhg and 40 mmhg | Change [39]: 31 mmhg and 30 mmhg | Response After AII [39]: 255 mmhg and 270 mmhg | Change [40]: 32 mmhg and 45 mmhg | Response After AII [40]: 262 mmhg and 280 mmhg | Control Before AII (2 mg/kg P.O., before AII 0.05 mcg/kg IV, 30 min post dose): 250 mmhg | Control Before AII (2 mg/kg P.O., before AII 0.05 mcg/kg IV, 30 min post dose, 2 mg/kg): 230 mmhg | Control Before AII (2 mg/kg P.O., before AII 0.05 mcg/kg IV, 60 min post dose): 240 mmhg | Control Before AII (2 mg/kg P.O., before AII 0.05 mcg/kg IV, 60 min post dose, 2 mg/kg): 235 mmhg | Control Before AII (2 mg/kg P.O., before AII 0.05 mcg/kg IV, 90 min post dose, 2 mg/kg): 225 mmhg and 230 mmhg | Control Before AII (2 mg/kg P.O., before AII 0.05 mcg/kg IV, 120 min post dose, 2 mg/kg): 225 mmhg and 235 mmhg | Control Before AII (2 mg/kg P.O., before AII 0.05 mcg/kg IV, 180 min post dose): 240 mmhg | Control Before AII (2 mg/kg P.O., before AII 0.05 mcg/kg IV, 180 min post dose, 2 mg/kg): 235 mmhg | Control Before AII (2 mg/kg P.O., before AII 0.1 mcg/kg IV, 30 min post dose, 2 mg/kg): 235 mmhg and 245 mmhg | Control Before AII (2 mg/kg P.O., before AII 0.1 mcg/kg IV, 60 min post dose): 240 mmhg | Control Before AII (2 mg/kg P.O., before AII 0.1 mcg/kg IV, 60 min post dose, 2 mg/kg): 225 mmhg | Control Before AII (2 mg/kg P.O., before AII 0.1 mcg/kg IV, 90 min post dose, 2 mg/kg): 225 mmhg and 230 mmhg | Control Before AII (2 mg/kg P.O., before AII 0.1 mcg/kg IV, 120 min post dose): 240 mmhg | Control Before AII (2 mg/kg P.O., before AII 0.1 mcg/kg IV, 120 min post dose, 2 mg/kg): 224 mmhg | Control Before AII (2 mg/kg P.O., before AII 0.1 mcg/kg IV, 180 min post dose, 2 mg/kg): 230 mmhg and 235 mmhg
